Experimental findings from patent US12121505B2, “Fap-activated therapeutic agents, and uses related thereto” (BACH BIOSCIENCES, LLC, priority 2014, dated 2024) are described below.

Usually EC50 stands for the concentration needed to bring the measured effect to its halfway point.

One test deals with T1, PREP (Homo sapiens, UniProt P48147).
T1 sequence (P48147 1-710): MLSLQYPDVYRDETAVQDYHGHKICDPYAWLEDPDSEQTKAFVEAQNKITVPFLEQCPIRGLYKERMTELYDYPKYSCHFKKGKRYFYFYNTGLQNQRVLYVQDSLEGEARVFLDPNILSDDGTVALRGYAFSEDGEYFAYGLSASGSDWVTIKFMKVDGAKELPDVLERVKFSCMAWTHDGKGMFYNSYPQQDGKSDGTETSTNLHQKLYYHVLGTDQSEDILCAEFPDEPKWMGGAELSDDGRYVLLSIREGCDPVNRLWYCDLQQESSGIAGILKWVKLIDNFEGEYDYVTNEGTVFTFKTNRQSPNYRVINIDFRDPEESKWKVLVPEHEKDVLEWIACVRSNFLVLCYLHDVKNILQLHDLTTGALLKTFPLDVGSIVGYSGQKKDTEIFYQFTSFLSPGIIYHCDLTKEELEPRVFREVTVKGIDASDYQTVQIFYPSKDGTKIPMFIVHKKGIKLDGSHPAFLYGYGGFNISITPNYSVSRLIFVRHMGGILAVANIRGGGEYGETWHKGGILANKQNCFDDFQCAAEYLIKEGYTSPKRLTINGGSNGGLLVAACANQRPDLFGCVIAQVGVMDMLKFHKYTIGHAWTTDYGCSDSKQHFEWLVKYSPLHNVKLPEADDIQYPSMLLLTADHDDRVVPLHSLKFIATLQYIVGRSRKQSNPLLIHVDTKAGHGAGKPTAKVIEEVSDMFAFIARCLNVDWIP
Kind of test: Specificity of activation: 24 h digestion with PREP. Format: biochemical. Conditions: 100 μM prodrug, 37° C. The method, then: (§1) Total doxorubicin was measured for each assay.

For test [1], the target named is dipeptidyl peptidase IV (DPP IV) (Homo sapiens, UniProt P27487). The test can be described thus: Specificity of activation: 24 h digestion with DPP IV. Conditions: 100 μM prodrug, 37° C. Format: biochemical. The method, then:
as §1

A further test deals with HEK-mFAP cells. The test can be described thus: CellTiter-Blue cell viability assay with HEK-mFAP cells. It counts as cell-based, Human. Conditions: for activation by FAP expressed by HEK-mFAP cells / effect of addition of the FAP inhibitor 5057 on activation: FIG. 15A, 15B. Background: Alamar Blue is a resazurin reagent that responds to reducing activity.
A further test concerns HEK-Mock cells. Kind of test: CellTiter-Blue cell viability assay with HEK-Mock cells. It counts as cell-based. Conditions: Homo sapiens.
Another test concerns MCF-7. Kind of test: CellTiter-Blue cell viability assay, MCF-7. Format: cell-based. To be noted: 5061DOX assay 2, MCF-7, 72 hour.
Another test has as its system SK-OV-3. Kind of test: CellTiter-Blue cell viability assay, SK-OV-3. Format: cell-based. To be noted: 5061DOX assay 2, SK-OV-3, 72 hour.
The next test relates to OVCAR-3. Kind of test: CellTiter-Blue cell viability assay, OVCAR-3. Format: cell-based. To be noted: 5061DOX assay 2, OVCAR-3, 72 hour.
[2] abbreviates: Homo sapiens, 72 h, MK-2206 / Akt inhibitor prodrugs, HEK-mFAP cells, 72 hour incubation, read-out: EC50 (prodrug alone).
Setting [3] is: Homo sapiens, read-out: EC50 (prodrug + 100 uM 5057).
The mark [4] stands for this setting: Homo sapiens, read-out: EC50 (prodrug alone).
Where [5] appears, read: read-out: EC50 (doxorubicin alone).

Like-named read-outs stand apart in the source and are kept apart here.

Sequence of dipeptidyl peptidase IV (DPP IV) (P27487 whole entry, species assumed): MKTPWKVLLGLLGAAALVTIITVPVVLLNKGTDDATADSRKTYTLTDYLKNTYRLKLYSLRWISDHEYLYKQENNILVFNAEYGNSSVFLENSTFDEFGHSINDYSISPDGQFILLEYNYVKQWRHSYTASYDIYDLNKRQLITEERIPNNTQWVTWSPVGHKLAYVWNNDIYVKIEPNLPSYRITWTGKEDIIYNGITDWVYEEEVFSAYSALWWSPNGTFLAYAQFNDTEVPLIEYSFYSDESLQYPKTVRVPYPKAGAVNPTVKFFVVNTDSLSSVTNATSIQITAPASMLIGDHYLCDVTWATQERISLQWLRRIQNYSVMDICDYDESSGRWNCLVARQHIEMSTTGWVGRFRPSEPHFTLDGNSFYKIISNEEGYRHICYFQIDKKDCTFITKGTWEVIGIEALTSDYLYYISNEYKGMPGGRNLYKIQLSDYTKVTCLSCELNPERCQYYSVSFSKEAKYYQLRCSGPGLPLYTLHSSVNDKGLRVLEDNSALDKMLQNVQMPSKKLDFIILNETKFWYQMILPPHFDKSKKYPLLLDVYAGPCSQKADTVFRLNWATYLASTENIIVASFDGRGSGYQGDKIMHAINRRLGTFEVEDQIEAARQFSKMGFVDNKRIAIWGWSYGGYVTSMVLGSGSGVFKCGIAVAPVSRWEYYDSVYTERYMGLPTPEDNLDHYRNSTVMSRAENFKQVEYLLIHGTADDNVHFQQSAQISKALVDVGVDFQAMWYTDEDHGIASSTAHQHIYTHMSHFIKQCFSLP

As for `COc1cccc2c1C(=O)c1c(O)c3c(c(O)c1C2=O)C[C@@](O)(C(=O)CO)C[C@@H]3OC1CC(NC(=O)[C@@H]2CCCN2C(=O)[C@@H](C)NC(=O)[C@H](CO)NC(=O)CCC(=O)O)C(O)C(C)O1` (stereo partly drawn) [Compound 3996DOX], on PREP, the “doxorubicin released by PREP” value was “essentially none by PREP or DPP IV”. In addition, in test [1], the “doxorubicin released by DPP IV” value is “essentially none by PREP or DPP IV”.

With `O=C(NC1(c2ccc(-c3nc4ccn5c(=O)[nH]nc5c4cc3-c3ccccc3)cc2)CCC1)OCc1ccc(NC(=O)[C@@H]2CC(F)(F)CN2C(=O)CNC(=O)c2ccnc3ccccc23)cc1` [Compound 5173], in the test on HEK-mFAP cells, the “activation by FAP expressed by HEK-mFAP cells” value is given as “appears to be activated by the FAP expressed by the HEK-mFAP cells” and the “effect of addition of the FAP inhibitor 5057 on activation” value is “blocks this activation”. In addition, the concentration giving a half-maximal response (EC50) in the test on HEK-mFAP cells (setting [2]) was greater than 2.5 µM.

Take `NNc1ccc(C(=O)NCC(=O)N2CC(F)(F)C[C@H]2C(=O)Nc2ccc(COC(=O)NC3(c4ccc(-c5nc6ccn7c(=O)[nH]nc7c6cc5-c5ccccc5)cc4)CCC3)cc2)cn1` [Compound 5192]: in the test on HEK-mFAP cells (setting [2]), the 50% effective concentration (EC50) was greater than 3 µM.

Regarding `Cn1ncc(Cl)c1-c1cc(C(=O)N[C@H](CNC(=O)[C@@H]2CC(F)(F)CN2C(=O)CNC(=O)c2ccnc3ccccc23)Cc2cccc(F)c2)sc1Cl` [Compound 5184], the EC50 with HEK-mFAP cells (Homo sapiens, 72 h, Akt inhibitor prodrugs, HEK-mFAP cells, 72 hrs, read-out: EC50 (prodrug alone)) stood at 0.93 µM.

As to `NCC(=O)NNc1ccc(C(=O)NCC(=O)N2CC(F)(F)C[C@H]2C(=O)Nc2ccc(COC(=O)NC3(c4ccc(-c5nc6ccn7c(=O)[nH]nc7c6cc5-c5ccccc5)cc4)CCC3)cc2)cn1` [Compound 5193], the EC50 in the test on HEK-mFAP cells (setting [2]) was found to be 2.6 µM.

With `NC1(c2ccc(-c3nc4ccn5c(=O)[nH]nc5c4cc3-c3ccccc3)cc2)CCC1` [MK-2206, reference compound], the EC50 with HEK-Mock cells (5157 assay, HEK-Mock, read-out: EC50 (MK-2206 alone)) worked out at 6.7 µM; with HEK-mFAP cells (Homo sapiens, 5157 assay, HEK-mFAP, read-out: EC50 (MK-2206 alone)) it was 5.3 µM; in the test on HEK-mFAP cells (Homo sapiens, 72 h, HEK-mFAP cells, 72 hrs, read-out: EC50 (MK-2206)) it was 9.1 µM.

For `C[C@@H](NC(=O)c1ccncc1)C(=O)N1CCC[C@H]1C(=O)Nc1ccc(COC(=O)NC2(c3ccc(-c4nc5ccn6c(=O)[nH]nc6c5cc4-c4ccccc4)cc3)CCC2)cc1` [Compound 5157], the EC50 was greater than 2.5 µM with HEK-Mock cells (5157 assay, HEK-Mock, read-out: EC50 (prodrug + 100 uM 3099-15)); greater than 2.5 µM with HEK-Mock cells (5157 assay, HEK-Mock, read-out: EC50 (prodrug alone)); greater than 2.5 µM in the test on HEK-mFAP cells (Homo sapiens, 5157 assay, HEK-mFAP, read-out: EC50 (prodrug + 100 uM 3099-15)); 2.9 µM with HEK-mFAP cells (Homo sapiens, 5157 assay, HEK-mFAP, read-out: EC50 (prodrug alone)).

`Cn1ncc(Cl)c1-c1cc(C(=O)N[C@H](CN)Cc2cccc(F)c2)sc1Cl` [GSK2 110183, reference compound]: in the test on HEK-mFAP cells (HEK-mFAP cells, 72 hrs, read-out: EC50 (GSK2 110183)), the EC50 came out at 0.49 µM.

As to `CCn1c(-c2nonc2N)nc2c(C#CC(C)(C)O)ncc(OC[C@H]3CCCN(C(=O)[C@@H]4CC(F)(F)CN4C(=O)CNC(=O)c4ccnc5ccccc45)C3)c21` [Compound 5188], the EC50 with HEK-mFAP cells (setting [2]) was greater than 25 µM.

`COc1cccc2c1C(=O)c1c(O)c3c(c(O)c1C2=O)C[C@@](O)(C(=O)CO)C[C@@H]3OC1CC(NC(=O)[C@@H]2CC(F)(F)CN2C(=O)[C@@H](C)NC(=O)c2ccnc3ccccc23)C(O)C(C)O1` (stereo partly drawn) [Compound 5107DOX]: the half-maximal effective concentration (EC50) with HEK-mFAP cells (Homo sapiens, 5107DOX assay, HEK-mFAP, 72 hour, read-out: EC50 (prodrug + 100 uM 5057-2)) was greater than 100 µM; in the test on HEK-mFAP cells (Homo sapiens, 5107DOX assay, HEK-mFAP, 72 hour, read-out: EC50 (prodrug alone)) it was 0.94 µM.

With `C[C@@H](NC(=O)c1ccnc2ccccc12)C(=O)N1CC(F)(F)C[C@H]1C(=O)Nc1ccc(COC(=O)NC2(c3ccc(-c4nc5ccn6c(=O)[nH]nc6c5cc4-c4ccccc4)cc3)CCC2)cc1` [Compound 5174], in the test on HEK-mFAP cells, the “activation by FAP expressed by HEK-mFAP cells” value is “appears to be activated by the FAP expressed by the HEK-mFAP cells” and the “effect of addition of the FAP inhibitor 5057 on activation” value was “blocks this activation”. The half-maximal effective concentration (EC50) in the test on HEK-mFAP cells (setting [2]) is 4.6 µM.

In the case of AZD5363 [reference compound], the EC50 with HEK-mFAP cells (HEK-mFAP cells, 72 hour, read-out: EC50 (AZD5363)) was determined as 2.5 µM.

Turning to `COc1cccc2c1C(=O)c1c(O)c3c(c(O)c1C2=O)C[C@@](O)(C(=O)CO)C[C@@H]3OC1CC(NC(=O)[C@@H]2CCCN2C(=O)[C@@H](C)NC(=O)c2ccnc3cccc(Br)c23)C(O)C(C)O1` (stereo partly drawn) [Compound 5061DOX], the half-maximal effective concentration (EC50) with HEK-Mock cells (72 h, 5061DOX assay 1, HEK-Mock, 72 hour, read-out: EC50 (prodrug + 25 nM FAP)) was 0.28 µM; in the test on HEK-Mock cells (72 h, 5061DOX assay 1, HEK-Mock, 72 hour, read-out: EC50 (prodrug + 50 nM PREP)), greater than 100 µM; in the test with HEK-Mock cells (72 h, 5061DOX assay 1, HEK-Mock, 72 hour, read-out: EC50 (prodrug + 100 uM 5057)) it was greater than 100 µM; in the test with HEK-Mock cells (72 h, 5061DOX assay 1, HEK-Mock, 72 hour, read-out: EC50 (prodrug alone)), greater than 100 µM; in the test with HEK-Mock cells (72 h, 5061DOX assay 2, HEK-Mock, 72 hour, read-out: EC50 (prodrug + 25 nM FAP)), 0.25 µM; in the test on HEK-Mock cells (72 h, 5061DOX assay 2, HEK-Mock, 72 hour, read-out: EC50 (prodrug alone)), greater than 100 µM. Further, the EC50 with HEK-mFAP cells (5061DOX assay 1, HEK-mFAP, 72 hour, read-out: EC50 (prodrug alone)) was greater than 100 µM; in the test with HEK-mFAP cells (5061DOX assay 2, HEK-mFAP, 72 hour, read-out: EC50 (prodrug + 100 uM 5057)), greater than 100 µM; in the test on HEK-mFAP cells (Homo sapiens, 5061DOX assay 1, HEK-mFAP, 72 hour, read-out: EC50 (prodrug + 100 uM 5057)) it was greater than 100 µM; with HEK-mFAP cells (Homo sapiens, 5061DOX assay 2, HEK-mFAP, 72 hour, read-out: EC50 (prodrug alone)) it was greater than 100 µM; with MCF-7 (Homo sapiens, MCF7, read-out: EC50 (prodrug + 25 nM FAP)) it was greater than 100 µM; in the test with MCF-7 (Homo sapiens, MCF7, read-out: EC50 (prodrug + 100 uM 5057)), greater than 100 µM. For the same molecule, the EC50 is greater than 100 µM with MCF-7 (Homo sapiens, MCF7, read-out: EC50 (prodrug alone)); 0.9 µM with SK-OV-3 (Homo sapiens, read-out: EC50 (prodrug + 25 nM FAP)); greater than 100 µM in the test with SK-OV-3 (setting [3]); greater than 100 µM in the test with SK-OV-3 (setting [4]); greater than 100 µM with OVCAR-3 (setting [3]); 1.5 µM with OVCAR-3 (Homo sapiens, read-out: EC50 (prodrug = 25 nM FAP)). For the same molecule, the EC50 with OVCAR-3 (setting [4]) is greater than 100 µM.

As for `COc1cccc2c1C(=O)c1c(O)c3c(c(O)c1C2=O)C[C@@](O)(C(=O)CO)C[C@@H]3O[C@H]1C[C@H](N)[C@H](O)[C@H](C)O1` [doxorubicin, reference compound], the concentration giving a half-maximal response (EC50) with MCF-7 (setting [5]) was found to be 54 µM; with SK-OV-3 (setting [5]), 0.44 µM; in the test with OVCAR-3 (setting [5]), 1.7 µM.

In the case of `CCn1c(-c2nonc2N)nc2c(C#CC(C)(C)O)ncc(OC[C@H]3CCCNC3)c21` [GSK690693, reference compound], the concentration for a half-maximal effect (EC50) with HEK-mFAP cells (Homo sapiens, 72 h, HEK-mFAP cells, 72 hour, read-out: EC50 (GSK690693)) amounted to 15 µM.

On to `O=C(NC1(C(=O)N[C@@H](CCO)c2ccc(Cl)cc2)CCN(c2ncnc3[nH]ccc23)CC1)OCc1ccc(NC(=O)[C@@H]2CC(F)(F)CN2C(=O)CNC(=O)c2ccnc3ccccc23)cc1` [Compound 5189], for which the EC50 amounted to 5.8 µM in the test on HEK-mFAP cells (Homo sapiens, 72 h, Akt inhibitor prodrugs, HEK-mFAP cells, 72 hour, read-out: EC50 (prodrug + 100 uM 5057-2)) and 3 µM with HEK-mFAP cells (setting [2]).
